From patent US9254261B2, “Stable quick dissolving dosage form comprising amoxicillin and clavulanic acid” (Sandoz AG, priority 2014, dated 2016)

Assay: Stability of potassium clavulanate alone and in binary mixtures with excipients, stressed storage 7 days at 60° C.
Assay type: physicochemical
Settings: after storage 7 days at 60° C.; control sample, no excipient
Experimental: In particular, the effect of different excipients and different mixture preparation conditions on the stability of the active ingredients was analyzed. […] In addition, two sets of compatibility studies with various excipients were conducted to investigate the influence of excipients on the stability of clavulanic acid and amoxicillin in the final dosage form. In the first study, a total of eight binary (i.e. two component) mixtures were prepared, each combining: […] (a) silicified microcrystalline cellulose, (b) low moisture silicified microcrystalline cellulose, having a moisture content of less than about 3.0%, (c) crospovidone, or (d) mannitol. […] After storage at a temperature of about 60° C. for about 7 days, each of the mixtures was then assayed to determine the amount of active ingredient remaining. Similarly, in the second study, a total of eight binary mixtures were prepared, each combining: […] (a) silicified microcrystalline cellulose, (b) low moisture silicified microcrystalline cellulose, (c) crospovidone, or (d) colloidal silicon dioxide. […] Further, each of the binary mixtures in the second study was prepared in a reduced moisture environment at a normal relative humidity (RH) of less than 30%. After storage at a temperature of about 60° C. for about 7 days, each of the mixtures was then assayed to determine the amount of active ingredient remaining.

## O=C(O)[C@H]1/C(=C/CO)O[C@@H]2CC(=O)N21 [Clavulanic acid (CA), potassium clavulanate]
  Assay of clavulanic acid (%): 94%
